# Literature values in patent US6720307B2, “Glycosylated analogs of fusidic acid” (The University of Michigan, priority 1996, dated 2004).
# What was measured:
# [1] = tested on: HIV; details: in vitro
# [2] = tested on: Staphylococcus aureus
# [3] = tested on: mycobacteria
# [4] = tested on: methicillin-resistant staphylococci
# [5] = tested on: Clostridium spp.
# [6] = tested on: Nocardia spp.
# [7] = tested on: enterobacteria; details: all enterobacteria
# [8] = tested on: streptococci
# [9] = tested on: Gram-negative bacilli
# [10] = tested on: corynebacteria
# [11] = tested on: fungi
# [12] = tested on: S. epidermidis
# [13] = tested on: Bacteroides spp.
# [14] = tested on: Neisseria
# [15] = tested on: Psuedomonas spp.
smiles,measurement,setting,value
"CC(=O)O[C@H]1C[C@@]2(C)[C@@H](C[C@@H](O)[C@H]3[C@@]4(C)CC[C@@H](O)[C@@H](C)[C@@H]4CC[C@@]32C)/C1=C(\CCC=C(C)C)C(=O)O [fusidic acid, 3α,11α,16β-Trihydroxy-29-nor-8α,9β,13α,14β-dammara-17(20),24-dien-21-oic acid 16-acetate]",effectiveness against HIV,[1],in vitro effectiveness
same,susceptibility to fusidic acid,[2],highly susceptible
same,efficacy,[3],moderate efficacy
same,susceptibility to fusidic acid,[4],usually susceptible
same,susceptibility to fusidic acid,[5],highly susceptible
same,efficacy,[6],moderate efficacy
same,susceptibility to fusidic acid,[7],resistant
same,efficacy,[8],moderate efficacy
same,susceptibility to fusidic acid,[9],resistant
same,susceptibility to fusidic acid,[10],highly susceptible
same,susceptibility to fusidic acid,[11],resistant
same,susceptibility to fusidic acid,[12],highly susceptible
same,susceptibility to fusidic acid,[13],susceptible
same,susceptibility to fusidic acid,[14],susceptible
same,susceptibility to fusidic acid,[15],resistant
